What all share (type): cell-based, human
Data set [1] has as its system DU-145 prostate cancer cells. As to the kind of experiment: In vitro cytotoxicity against DU-145 prostate cancer cells. To be noted: DU-145 cells; for IC50: five days. As for the experimental part: (§1) The half maximal inhibitory concentration (IC50) is a measure of the effectiveness of a substance in inhibiting a specific biological or biochemical function. It is commonly used as a measure of antagonist drug potency.
Cell numbers were counted with a cell viability analyzer (Beckman-Coulter).
(§2) A preliminary dose response curve was prepared from the collected data by means well known to those of ordinary skill in the art.
(§3) The six different concentrations fell within a selected linear concentration range determined by reference to the preliminary dose response curve and efforts to estimate the concentration at which 50% of the cell growth would be inhibited. The selected six different concentrations were used to further fill out the dose response curve to pinpoint a more exact IC50 value.

For data set [2], the system named is HeLa cervical cancer cells. As to the kind of experiment: HeLa cell viability after treatment with analog (cell count, cell viability analyzer). To be noted: three days, relative to DMSO vehicle. As for the experimental part:
Cell numbers were counted with a cell viability analyzer (Beckman-Coulter). The ratio of drug treated viable cell numbers to control vehicle (DMSO) treated viable cell numbers was defined as percentage viability. […] Compound nos.
The HeLa cells used in the experiments summarized by Table 5 were cultured in RPMI-1640 medium supplemented with 10% FBS, 4 mM glutamine, 1 mM sodium pyruvate, 100 IU/mL penicillin, 100 ug/mL streptomycin and 0.25 ug/mL amphotericin. The HeLa cells were plated in 24-well plates at a density of 20,000 cells in each well in 10% FBS RPMI-1640. […] Cell numbers were counted with a cell viability analyzer (Beckman-Coulter). […]

For data set [3], the system named is PC-3 prostate cancer cells. As to the kind of experiment: In vitro cytotoxicity against PC-3 prostate cancer cells. Conditions: PC-3 cells; for IC50: five days. How it is done: as §1
Cell cultures were maintained in 5% carbon dioxide at a temperature of 37° C. […] Cell numbers were counted with a cell viability analyzer (Beckman-Coulter). […] A preliminary dose response curve was prepared from the collected data by means well known to those of ordinary skill in the art.
as §3

Data set [4] concerns HeLa cervical cancer cells. Kind of data set: In vitro cytotoxicity against HeLa cervical cancer cells. To be noted: for IC50: three days. How it is done:
as §1
Cell numbers were counted with a cell viability analyzer (Beckman-Coulter). The ratio of drug treated viable cell numbers to vehicle treated viable cell numbers was defined as percentage viability.
as §2, §3

The values below come from patent publication US9499529B2 (California State University Fresno, priority 2013, dated 2016).

For `Cn1nccc1/C=C/C(=O)/C=C/c1ccnn1C` [Compound 23], the IC50 came out at 0.16 µM in data set [1] and 1.9 µM in data set [3]. The “HeLa Cell viability after treatment with analog (% viability)” value came out at 59% in data set [2] (1 μM) and 82.6% in data set [2] (10 μM).
`CN1CC(=Cc2cnn(C)c2)C(=O)C(=Cc2cnn(C)c2)C1` [Compound 3]: the “IC50 (curcumin)/IC50 (analog)” value in data set [1] is reported as 0.0002; in data set [3], 0.03. Moreover, the IC50 in data set [1] was 1870 µM; in data set [3], 76 µM. Also, the entries for the “HeLa Cell viability after treatment with analog (% viability)” value in data set [2] (1 μM) and in data set [2] (10 μM) were 100.9% and 97.8%, respectively.
As for `CCC(C)n1ccnc1C=C1CN(C)CC(=Cc2nccn2C(C)CC)C1=O` (stereo not shown) [Compound 2], the IC50 is 0.01 µM in data set [1] and 6.63 µM in data set [3]. Besides, the “HeLa Cell viability after treatment with analog (% viability)” value in data set [2] (1 μM) is 111.1%; in data set [2] (10 μM), 95.9%.
The compound `CC(C)CCn1ccnc1/C=C/C(=O)/C=C/c1nccn1CCC(C)C` [Compound 33] displayed an IC50 in data set [4] of 0.23 µM. Moreover, the “HeLa Cell viability after treatment with analog (% viability)” value in data set [2] (1 μM) is 3.0%.
With `CCC(CC)n1ccnc1/C=C/C(=O)/C=C/c1nccn1C(CC)CC` [Compound 32], in data set [4], 0.25 µM corresponded to half-maximal inhibition (IC50). Also, the “HeLa Cell viability after treatment with analog (% viability)” value in data set [2] (1 μM) is recorded as 3.4%.
On to `CC(C)Cn1ccnc1C=C1CCCC(=Cc2nccn2CC(C)C)C1=O` [Compound 12], for which the “IC50 (curcumin)/IC50 (analog)” value is listed as 0.8 in data set [1] and 4.2 in data set [3]. Moreover, the figures for the half-inhibitory concentration (IC50) in data set [1] and in data set [3] were 0.36 µM and 0.47 µM, respectively. Moreover, the “HeLa Cell viability after treatment with analog (% viability)” value in data set [2] (1 μM) is reported as 100%; in data set [2] (10 μM), 94.5%.
Consider `Cc1nc(/C=C/C(=O)/C=C/c2coc(C)n2)co1` [Compound 26], for which the “IC50 (curcumin)/IC50 (analog)” value in data set [1] is listed as 0.4; in data set [3], 2.4. The IC50 is 0.75 µM in data set [1] and 0.84 µM in data set [3]. Moreover, the “HeLa Cell viability after treatment with analog (% viability)” value in data set [2] (1 μM) came out at 100%; in data set [2] (10 μM) it was 65.9%.
Regarding `Cc1cc(C=C2CN(C)CC(=Cc3cc(C)no3)C2=O)on1` [Compound 9], in data set [1], the “IC50 (curcumin)/IC50 (analog)” value was 0.4. In addition, the IC50 in data set [1] came to 0.69 µM; in data set [3], 0.13 µM. The “HeLa Cell viability after treatment with analog (% viability)” value was found to be 75.3% in data set [2] (1 μM) and 27.8% in data set [2] (10 μM).
For the compound `Cc1nc(C=C2CN(C)CC(=Cc3coc(C)n3)C2=O)co1` [Compound 7], the IC50 came out at 0.076 µM in data set [1] and 0.31 µM in data set [3]. Also, the “HeLa Cell viability after treatment with analog (% viability)” value in data set [2] (1 μM) and in data set [2] (10 μM) was 59.5% throughout. In addition, the “IC50 (curcumin)/IC50 (analog)” value in data set [3] amounted to 6.4.
For the compound `CC(C)n1ccnc1C=C1CCCC(=Cc2nccn2C(C)C)C1=O` [Compound 10], the values for the IC50 in data set [1] and in data set [3] were 0.1 µM and 0.16 µM, respectively. The figures for the “HeLa Cell viability after treatment with analog (% viability)” value in data set [2] (1 μM) and in data set [2] (10 μM) were 114.9% and 85.1%, respectively.
As for `Cn1cc(C=C2CCCC(=Cc3cnn(C)c3)C2=O)cn1` [Compound 13], the “IC50 (curcumin)/IC50 (analog)” value was determined as 0.003 in data set [1] and 0.015 in data set [3]. In addition, the IC50 is 90 µM in data set [1] and 130 µM in data set [3]. For the same compound, the “HeLa Cell viability after treatment with analog (% viability)” value in data set [2] (1 μM) was 97%; in data set [2] (10 μM), 100%.
As to `O=C1C(=Cc2cscn2)CCCC1=Cc1cscn1` [Compound 16], the IC50 in data set [1] is 0.075 µM; in data set [3], 0.12 µM. Besides, the “HeLa Cell viability after treatment with analog (% viability)” value stood at 79% in data set [2] (1 μM) and 15.8% in data set [2] (10 μM). Moreover, the “IC50 (curcumin)/IC50 (analog)” value in data set [3] came out at 16.5.
On to `Cn1cc(/C=C/C(=O)/C=C/c2cnn(C)c2)cn1` [Compound 38], for which, in data set [2] (1 μM), the “HeLa Cell viability after treatment with analog (% viability)” value came out at 92.8%.
For `O=C(/C=C/c1cncs1)/C=C/c1cncs1` [Compound 29], in data set [2] (1 μM), the “HeLa Cell viability after treatment with analog (% viability)” value came to 77%.
Turning to `Cc1cc(C=C2CCCC(=Cc3cc(C)no3)C2=O)on1` [Compound 19], the “IC50 (curcumin)/IC50 (analog)” value in data set [1] worked out at 0.9. Moreover, the IC50 was found to be 0.34 µM in data set [1] and 0.054 µM in data set [3]. For the same compound, the “HeLa Cell viability after treatment with analog (% viability)” value amounted to 95% in data set [2] (1 μM) and 15.9% in data set [2] (10 μM).
In turn, `CC(C)Cn1c(/C=C/C(=O)/C=C/c2nc3ccccc3n2CC(C)C)nc2ccccc21` [Compound 41] returned an IC50 in data set [4] of 0.321 µM. Besides, in data set [2] (1 μM), the “HeLa Cell viability after treatment with analog (% viability)” value is 5.72%.
Regarding `CCCCCCn1ccnc1/C=C/C(=O)/C=C/c1nccn1CCCCCC` [Compound 35], in data set [4], the “IC50 (curcumin)/IC50 (analog)” value is given as 18 and the IC50 came out at 0.59 µM. In addition, the “HeLa Cell viability after treatment with analog (% viability)” value in data set [2] (1 μM) came to 6.1%.
Turning to `CCCC(C)n1ccnc1/C=C/C(=O)/C=C/c1nccn1C(C)CCC` (stereo not shown) [Compound 34], the IC50 in data set [4] is 0.15 µM. For the same compound, the “HeLa Cell viability after treatment with analog (% viability)” value in data set [2] (1 μM) is 7.7%.
As to `O=C(/C=C/c1cscn1)/C=C/c1cscn1` [Compound 25], the IC50 in data set [1] turned out to be 0.096 µM; in data set [3], 0.094 µM. The “HeLa Cell viability after treatment with analog (% viability)” value was 89% in data set [2] (1 μM) and 13.7% in data set [2] (10 μM).
Take `O=C(/C=C/c1ccncc1F)/C=C/c1ccncc1F` [Compound 36]: in data set [2] (1 μM), the “HeLa Cell viability after treatment with analog (% viability)” value was found to be 25.6%.
`O=C(/C=C/c1nccs1)/C=C/c1nccs1` [Compound 24]: the IC50 in data set [1] was found to be 0.055 µM; in data set [3], 0.068 µM. Besides, the “HeLa Cell viability after treatment with analog (% viability)” value in data set [2] (1 μM) turned out to be 68%; in data set [2] (10 μM), 19.2%.
For the compound `Cc1noc(C)c1/C=C/C(=O)/C=C/c1c(C)noc1C` [Compound 30], in data set [2] (1 μM), the “HeLa Cell viability after treatment with analog (% viability)” value turned out to be 67%.
As to `CCC(CC)n1c(/C=C/C(=O)/C=C/c2nc3ccccc3n2C(CC)CC)nc2ccccc21` [Compound 45], in data set [4], the “IC50 (curcumin)/IC50 (analog)” value worked out at 15 and the midpoint of inhibition, the IC50, lay at 0.696 µM.
For the compound `Cc1nc(C=C2CCCC(=Cc3coc(C)n3)C2=O)co1` [Compound 17], the “IC50 (curcumin)/IC50 (analog)” value in data set [1] is reported as 0.18; in data set [3], 1. Also, the IC50 in data set [1] was determined as 1.65 µM; in data set [3], 1.97 µM. In addition, the “HeLa Cell viability after treatment with analog (% viability)” value amounted to 100% in data set [2] (1 μM) and 59.5% in data set [2] (10 μM).
Take `CN1CC(=Cc2nccs2)C(=O)C(=Cc2nccs2)C1` [Compound 5]: the IC50 in data set [1] turned out to be 0.046 µM; in data set [3], 0.42 µM. Further, the “HeLa Cell viability after treatment with analog (% viability)” value in data set [2] (1 μM) is reported as 51.7%; in data set [2] (10 μM), 21.6%. Further, in data set [3], the “IC50 (curcumin)/IC50 (analog)” value was determined as 4.7.
On to `Cc1csc(/C=C/C(=O)/C=C/c2nc(C)cs2)n1` [Compound 31], for which the “HeLa Cell viability after treatment with analog (% viability)” value in data set [2] (1 μM) was found to be 52%.
In the case of `CCC(C)n1ccnc1C=C1CCCC(=Cc2nccn2C(C)CC)C1=O` (stereo not shown) [Compound 11], the IC50 was determined as 0.25 µM in data set [1] and 0.83 µM in data set [3]. Besides, the “HeLa Cell viability after treatment with analog (% viability)” value in data set [2] (1 μM) and in data set [2] (10 μM) was 100% in each case. For the same compound, in data set [3], the “IC50 (curcumin)/IC50 (analog)” value was determined as 2.
Regarding `CN1CC(=Cc2ccnn2C)C(=O)C(=Cc2ccnn2C)C1` [Compound 4], the results for the “IC50 (curcumin)/IC50 (analog)” value in data set [1] and in data set [3] were 0.18 and 1.9, respectively. Further, the IC50 in data set [1] was determined as 1.64 µM; in data set [3] it was 1.02 µM. Also, the “HeLa Cell viability after treatment with analog (% viability)” value in data set [2] (1 μM) came out at 107.1%; in data set [2] (10 μM), 67.4%.
For `CC(C)n1ccnc1C=C1CN(C)CC(=Cc2nccn2C(C)C)C1=O` [Compound 1], the values for the IC50 in data set [1] and in data set [3] were 0.14 µM and 0.11 µM, respectively. Besides, the “HeLa Cell viability after treatment with analog (% viability)” value is on record as 126.94% in data set [2] (1 μM) and 118.5% in data set [2] (10 μM). Besides, the “IC50 (curcumin)/IC50 (analog)” value in data set [3] is 18.
`O=C(/C=C/c1cocn1)/C=C/c1cocn1` [Compound 37]: the “HeLa Cell viability after treatment with analog (% viability)” value in data set [2] (1 μM) is listed as 72.9%.
Consider `Cn1nccc1C=C1CCCC(=Cc2ccnn2C)C1=O` [Compound 14], for which the “IC50 (curcumin)/IC50 (analog)” value is given as 0.41 in data set [1] and 7.6 in data set [3]. Moreover, the IC50 was 0.73 µM in data set [1] and 0.26 µM in data set [3]. Further, the “HeLa Cell viability after treatment with analog (% viability)” value in data set [2] (1 μM) amounted to 88%; in data set [2] (10 μM), 71.4%.
Turning to `O=C1C(=Cc2nccs2)CCCC1=Cc1nccs1` [Compound 15], the values for the half-inhibitory concentration (IC50) in data set [1] and in data set [3] were 0.12 µM and 0.11 µM, respectively. The results for the “HeLa Cell viability after treatment with analog (% viability)” value in data set [2] (1 μM) and in data set [2] (10 μM) were 78% and 9.7%, respectively. Besides, the “IC50 (curcumin)/IC50 (analog)” value in data set [3] amounted to 18.

What is called IC50 is the midpoint of a concentration-inhibition curve.
